These results are taken from the pKa sets of Baltruschat and Czodrowski (2020).

As usually defined, the pKa is the pH at which an ionisable group is half protonated. The low end stands for a stronger acid or weaker base, the high end for a weaker acid or stronger base. As to `C[N+](C)(C)c1cc([N+](=O)[O-])ccc1O`, under “acidic group”, the pKa worked out at 4.35.
For the compound `Nc1ccc([NH3+])cc1`, the pKa (basic group) stood at 2.86.
`Nc1ccc(S(=O)(=O)Nc2cnc(Cl)nc2)cc1` gave a pKa (acidic group) of 5.8.
Where the note is “basic group”, `OCc1ccccn1` had a pKa of 4.66.
Take `Oc1ccc(/C=N/c2ncc3nc[nH]c3n2)cc1`: the pKa worked out at 8.62 (acidic group) and 3.27 (basic group).
On to `NC(=O)CC(=O)c1cccnc1`, for which the pKa (basic group) amounted to 8.61.
In the case of `Cn1c(=O)n(C)c2c(N)cccc21`, the pKa (basic group) is 3.06.
Under “acidic group”, `NC(=O)c1ccccc1O` gave a pKa of 8.61.
Turning to `O=C1C=C(S(=O)(=O)[O-])/C(=N\O)c2cn[nH]c21`, the pKa (acidic group) amounted to 8.6.
For the compound `NCC[NH2+]CCCO`, the pKa (basic group) is 6.78.
Regarding `CCc1cc(Cl)c(OC)c(C(=O)NC[C@H]2CCC[NH+]2CC)c1O`, the pKa (acidic group) is 6.91.
For the compound `CCNc1nnc(-c2ccccc2)s1`, the pKa (basic group) was determined as 3.
Consider `N#CC(C#N)=NNc1ccc([N+](=O)[O-])cc1Cl`, for which the pKa is 4.15 (acidic group) and -0.62 (basic group).
Under “acidic group”, `C=C(OC)C(=O)O` yielded a pKa of 3.38.
In turn, `c1ccc(-c2nnn[nH]2)cc1` showed a pKa (acidic group) of 4.03.
For the compound `C[NH+](C)CCCNc1ccnc2ccc([N+](=O)[O-])cc12`, the pKa (basic group) came out at 6.99.
Same read-out and setting: the same measure for `O=[N+](O)C1=CC=CC1`: 3.25.
Turning to `Cn1ccnc1-c1[nH+]ccn1C`, the pKa (basic group) came out at 0.5.
On the same count and under the same terms, the same measure for `Cc1cccc(C=O)n1`: 4.55.
Still for that read-out and setting: the same measure for `c1ccc(CNc2nccs2)cc1`: 5.15.
Where the note is “basic group”, `CCN(CC)CC(=O)NC1c2ccccc2-c2ccccc21` registered a pKa of 7.98.
For the setting “basic group”, `Cc1cc(C)nc(N)c1` had a pKa of 7.84.
`COc1cc(OC)nc(NS(=O)(=O)c2ccc(O)cc2)n1` gave a pKa (acidic group) of 7.29.
In the case of `CCCC(=O)C(CCN1CCOCC1)(c1ccccc1)c1ccccc1`, the pKa (basic group) was determined as 7.17.
Compound `CCOC(=O)c1cnc2cc3c(cc2c1OCC)OCO3` had a pKa (basic group) of 4.09.
In turn, `Cc1cc(C[NH+](C)C)c(O)c(C[NH+](C)C)c1` displayed a pKa (acidic group) of 6.45.
For the compound `Cc1cc(-c2ccccc2)nn2cc(C[NH+]3CCOCC3)nc12`, the pKa (basic group) stood at 1.5.
Regarding `Cc1ccc(S(=O)(=O)NC(=O)OC(C)(C)C)cc1`, the pKa (acidic group) came out at 5.05.
Under “basic group”, `O=Cc1ccncc1` returned a pKa of 4.63.
For `CCC(=O)C(c1ccccc1)(c1ccccc1)[C@@H](C)CN(C)C`, the pKa (basic group) turned out to be 8.07.
On to `Cc1cc(O)[nH+]c(O)[nH+]1`, for which the pKa (acidic group) was found to be 1.2.
In the case of `O=[N+]([O-])/C=C/c1cccc(O)c1`, the pKa (acidic group) stood at 9.05.
`COC(=O)C[C@@H]1[C@@H](C(=O)O)[NH2+]C[C@H]1C(C)O` (some centres undefined) returned a pKa (acidic group) of 2.4.
With `Cc1cccc(Nc2ccccc2)c1`, under “basic group”, the pKa worked out at 0.92.
Where the note is “acidic group”, `[NH3+]CC#CC#CCCC(=O)O` returned a pKa of 4.05.
Still for that read-out and setting: the same measure for `C/C=C(\Cl)C(=O)O`: 3.22.
With `C#C[C@]1(O)C[C@@H](C)N[C@@H]2CCCC[C@H]21`, the pKa (basic group) is 9.73.
Turning to `CCOC(=O)c1cc(C)[n+](O)c(C)c1`, the pKa (acidic group) is -0.13.
`NCC(=O)[O-]` yielded a pKa (basic group) of 9.65.
For the compound `Cc1ccc([N+](C)(C)O)cc1`, the pKa (acidic group) is 4.32.
Same read-out and setting: under `CCCOc1ccccc1C(=O)O` stands 4.24; under `Nc1ccc2cn[nH]c2c1`, 14.3.
The compound `NCC(O)CN` had a pKa (basic group) of 9.64.
Regarding `O=C(c1ccccc1)c1cc[nH]n1`, the pKa (acidic group) came out at 12.
On the same count and under the same terms, under `CCC1(CC)SC(=O)NC1=O` stands 6.42.
For `CC(C)SCCN`, under “basic group”, the pKa worked out at 9.23.
Compound `CCCN1CCCCC1` showed a pKa (basic group) of 10.4.
The same measure, in the same setting: the same measure for `CCNCC#CCNCC`: 8.32; for `C=CCN1CCOCC1`: 7.05.
The compound `OCC(Cl)Cl` returned a pKa (acidic group) of 13.2.
Under “acidic group”, `Nc1cccc[n+]1O` gave a pKa of 2.67.
As to `COCCO`, where the note is “acidic group”, the pKa was 14.9.
Same read-out and setting: the same measure for `NC(=O)Nc1ccc([N+](=O)[O-])cc1`: 14; for `N#Cc1c(-c2nc3cc(Cl)ccc3o2)c(=O)oc2cc(O)ccc12`: 6.
Turning to `[O-]c1ccnnc1`, under “basic group”, the pKa came out at 8.68.
Where the note is “acidic group”, `Nc1ccc(S(=O)(=O)Nc2ncc[nH]2)cc1` gave a pKa of 9.72.
`CC(=O)[C@H]1CC=CC[C@@H]1C(=O)O` came in with a pKa (acidic group) of 4.4.
For the setting “acidic group”, `Cc1nc(-c2ccccc2)oc1O` gave a pKa of 8.94.
In turn, `NC(=O)CC(=O)O` yielded a pKa (acidic group) of 3.61.
`CN(C)C(C)(C)C=O` came in with a pKa (basic group) of 8.4.
The compound `NCCCCO` came in with a pKa (basic group) of 10.3.
`C[N+]1(CCCCCC(=O)O)CCCCC1` had a pKa (acidic group) of 4.44.
On to `O=P([O-])([O-])C(NCc1ccncc1)c1ccccc1[O-]` (centres undefined), for which the pKa (basic group) amounted to 12.2.
For `Cc1cnc2c(O)cccc2c1C`, the pKa by setting is: (acidic group) 10.1; (basic group) 5.8.
As for `CCN(CC)CCCNC(=O)/C=N/[O-]`, the pKa (basic group) came to 10.3.
On to `O=C([O-])CNC(=O)CNS(=O)(=O)c1ccccc1`, for which the pKa (acidic group) was 9.65.
Still for that read-out and setting: under `CCCCCc1c(-c2ccccc2)nn(-c2ccccc2)c1O` stands 7.3.
Compound `O=[N+]([O-])c1[nH]cnc1Cl` displayed a pKa (acidic group) of 5.9 and a pKa (basic group) of -1.3.
For the setting “basic group”, `Cc1cnc2c(c1)c(C)c(C)c1cc(C)cnc12` showed a pKa of 5.54.
On to `O=P([O-])(O)C([NH2+]Cc1cccnc1)c1ccccc1O` (centres undefined), for which the pKa by setting is: (acidic group) 5.15; (basic group) 3.14.
`Cc1cnnc2c(O)cccc12`: the pKa is 8.34 (acidic group) and 3.18 (basic group).
`CCOCCn1c(CN2CCCN(CCCCn3cc(C(=O)[O-])cn3)CC2)nc2ccccc21`: the pKa (basic group) amounted to 9.1.
Take `Cc1cc(C)nc([S-])n1`: the pKa (basic group) was 8.5.
Consider `Nc1ccc(-c2nnn[nH]2)cc1`, for which, under “acidic group”, the pKa turned out to be 4.55.
For `O=[N+]([O-])c1cccc(/C=C/C=N/O)c1`, where the note is “acidic group”, the pKa amounted to 10.2.
Turning to `OC(C[S-])CS`, the pKa (acidic group) amounted to 10.7.
The compound `CCOC(=O)C1CC2CCN1CC2` (centres undefined) came in with a pKa (basic group) of 8.8.
Under “acidic group”, `CSC1=NC(C)(C)C(O)=N1` displayed a pKa of 9.48.
Compound `Nc1nc(N)nc(Nc2ccccc2)n1` yielded a pKa (basic group) of 4.65.
`O=C(O)c1cc[nH+]cc1`: the pKa (acidic group) is 1.71.
`Cc1cccc(-n2nnnc2N)c1`: the pKa (basic group) worked out at 1.08.
Under “basic group”, `CC(N)CC#N` (centres undefined) came in with a pKa of 7.85.
Compound `FC(F)(F)c1cc(-c2ccccc2)nnc1NCC[NH+]1CCOCC1` came in with a pKa (basic group) of 1.44.
Take `O=C(O)[C@H]1CCC[C@H](O)C1`: the pKa (acidic group) worked out at 4.82.
The same measure, in the same setting: under `O=C(c1ccccc1)c1ccc(O)c(O)c1` stands 7.74.
For `Cc1ccnc(N)n1`, the pKa (basic group) was 4.2.
In turn, `Oc1ccccc1Br` registered a pKa (acidic group) of 8.4.
Where the note is “basic group”, `Cc1n[nH]c(C)c1Cl` came in with a pKa of 2.23.
As for `Cn1ccc(N)n1`, the pKa (basic group) is 3.81.
On to `N#CC(C#N)=NNc1ccc(OC(F)(F)F)cc1`, for which the pKa was 6 (acidic group) and -0.78 (basic group).
In the case of `CN1CC(O)C2=C/C(=N\O)C(=O)C=C21` (centres undefined), the pKa (acidic group) was found to be 8.6.
`c1ccc([C@@H]2CN3CCC[C@@H]3c3ccccc32)cc1` registered a pKa (basic group) of 9.12.
Under “basic group”, `CN(C)CCC(c1ccccc1)c1ccccn1` (centres undefined) registered a pKa of 9.29.
Regarding `O=C(O)C1CC1`, the pKa (acidic group) was 4.83.
Still for that read-out and setting: under `Cc1ccc(OCC(=O)O)cc1` stands 3.15; under `O=C(O)[C@@H]1C[C@@H](O)C[NH2+]1`, 1.92; under `Cc1cccc(I)c1C(=O)O`, 2.7.
The compound `Nc1ccc2[nH]ncc2c1` gave a pKa (basic group) of 5.15.
Where the note is “acidic group”, `Cc1ccc(C(=O)c2ccccc2C(=O)O)cc1` had a pKa of 3.64.
In the case of `CC1(C)[C@@H]2CC[C@](C(=O)O)(C2)[C@H]1O`, the pKa (acidic group) was determined as 5.05.
Take `Cn1ncc2c(NC(C)(C)CC(C)(C)C)ncnc21`: the pKa (basic group) is 3.96.
With `O=C(O)[C@H]1C[C@@H]1c1cccc([N+](=O)[O-])c1`, the pKa (acidic group) turned out to be 4.41.
`N=C(N)Nc1nc(N)nc(N)n1` displayed a pKa (basic group) of 9.4.
Regarding `Cc1cccc(C[N+](=O)[O-])c1`, the pKa (acidic group) was 6.97.
The same measure, in the same setting: the same measure for `CC/C(=N/O)C(C)=O`: 9.38.
Compound `COc1ncnc2c1cnn2C` came in with a pKa (basic group) of 2.51.
Consider `O=C([O-])[C@H](P)CC[C@H](P)C(=O)O`, for which the pKa (acidic group) is 4.49.
In turn, `C=C=C(C)C(C)(C)C(=O)O` yielded a pKa (acidic group) of 4.55.
Same read-out and setting: under `CC(C)(C)OC(=O)NS(=O)(=O)c1ccc(S(C)(=O)=O)cc1` stands 3.76.
Where the note is “basic group”, `Cn1cnc2cccc(N)c21` showed a pKa of 5.79.
For `OCCC[C@H]1CC[C@@H]2CCCN12`, the pKa (basic group) worked out at 11.2.
Consider `CN(C)c1cc[nH+]c2c(O)cccc12`, for which, under “acidic group”, the pKa came to 7.05.
In the case of `CC1(C(=O)O)CCCCC1`, the pKa (acidic group) stood at 5.13.
Where the note is “basic group”, `C=CCN(CC1CO1)CC1CO1` (centres undefined) returned a pKa of 6.16.
Under “basic group”, `COc1ccncn1` showed a pKa of 2.5.
With `N[C@H]1C[C@H]2CCCC[C@@H]2C[C@@H]1N`, the pKa (basic group) worked out at 10.1.
Same read-out and setting: the same measure for `CC(=O)c1ccncc1`: 3.6.
